Test results taken from US20060276477A1, “Treatment method for anemia” (FibroGen, Inc., priority 2005, published 2006).

Tests used:
Assay type in all cases: in vivo
[1] = system: circulating EPO; assay: Peak circulating (serum) EPO levels in normal monkeys after a single dose; conditions: 8-12 hours after administration
[2] = system: circulating EPO; assay: Circulating EPO levels in mice after oral gavage of compound A
Protocol: Mice were administered various doses (0, 20, 30, 60 mg/kg) of compound A by oral gavage. Circulating levels of EPO were determined 6 hours after compound administration. […] Administration of 20 mg/kg of compound A increased circulating levels of EPO approximately two-fold.

[3] = system: hemoglobin; assay: Hemoglobin levels in mice on day 8 after oral gavage on day 1, 3 and 5; conditions: for Hemoglobin 6 mg/kg cmpd: 6 mg/kg oral gavage on day 1, 3 and 5, measured day 8; for Hemoglobin 20 mg/kg cmpd: 20 mg/kg oral gavage on day 1, 3 and 5, measured day 8; for Hemoglobin 60 mg/kg cmpd: 60 mg/kg oral gavage on day 1, 3 and 5, measured day 8; for Hemoglobin 2 mg/kg cmpd: 2 mg/kg oral gavage on day 1, 3 and 5, measured day 8
Protocol: (§1) Mice were administered various doses (2 mg/kg, 6 mg/kg, 20 mg/kg, 60 mg/kg) of compounds of the present invention by oral gavage or by intravenous injection. Circulating levels of EPO were determined […] hours after single-dose administration of compound. Hemoglobin levels were measured in mice on day 8 following administration of compound by oral gavage on day 1, day 3, and day 5.

[4] = system: hemoglobin; assay: Hemoglobin levels in anemic pre-dialysis human subjects with chronic kidney disease; conditions: for Mean change from Baseline Hb Day 42 (or last value carried forward): oral three-times per week for 4 weeks
Protocol: The effects of compound of the present invention on erythropoiesis in anemic pre-dialysis subjects with advanced stage chronic kidney disease were determined. Study subjects had chronic kidney disease and anemia, having GFR<30 ml/min and Hb<10g/dL. Two anemic pre-dialysis subject populations with chronic kidney disease (CKD) were studied: (1) subjects with no previous exposure to rhEPO (i.e., rhEPO-naive) and (2) subjects who had been receiving continuous rhEPO therapy for at least 8 weeks. In rhEPO-treated subjects, rhEPO administration was discontinued 5-14 days prior to initiation of treatment with compound of the present invention Subjects were orally administered compound A three-times per week for 4 weeks. Erythropoiesis was measured by changes in hemoglobin levels and serum EPO concentrations.

[5] = system: circulating EPO; assay: Circulating EPO levels in mice after single intravenous or oral gavage dose; conditions: 6 hours after administration; for EPO Intravenous: single intravenous dose (dose of the table not stated; 2-60 mg/kg tested); for EPO Oral Gavage: single oral gavage dose (dose of the table not stated; 2-60 mg/kg tested)
Protocol: as §1

[6] = system: serum EPO; assay: Serum EPO levels in healthy human subjects after compound administration; design: EPO AUC (0-24 hours): unit not given beside the values
Protocol: […] At the indicated times (hours) after compound administration, serum EPO levels were determined.
(§2) Increases in circulating EPO levels following administration of compound A or of rhEPO were compared. Table 3 and Table 2 below show Cmax EPO and EPO Area Under the Curve (AUC) values following intravenous (i.v.) or subcutaneous (s.c.) administration of various doses of rhEPO to human subjects, respectively. […] (See Table 1 below.)

[7] = system: circulating EPO; assay: Circulating EPO levels in bilateral nephrectomized and sham-operated mice
Protocol: Mice underwent bilateral nephrectomy (BN) surgery (or were sham-operated). Two hours after BN surgery, mice were administered a single oral dose (30 mg/kg) of compound A. Circulating EPO levels were measured 6 hours after compound administration. […] The kidneys produce the majority of endogenous EPO.

[8] = system: hematocrit; assay: Hematocrit in rats after intermittent dosing for 4 weeks
Protocol: Male (diamonds in FIG. 2) and female (triangles in FIG. 2) rats were administered various doses (20, 60, 150, 200, 300 mg/kg) of compound A two times per week (e.g., intermittent dosing) for 4 weeks. Hematocrit was determined on day 32.

[9] = Circulating EPO (Cmax, AUC) after i.v. or s.c. administration of rhEPO to human subjects; conditions: assumes basal endogenous EPO of ~10 mIU/ml
Excerpt: as §2

Cc1nc(C(=O)NCC(=O)O)c(O)c2ccc(Oc3ccccc3)cc12 [Compound B, [(4-Hydroxy-1-methyl-7-phenoxy-isoquinoline-3-carbonyl)-amino]-acetic acid]
Peak EPO ([1]; single dose 3 mg/kg, pre-dose 4.2): 13.1 | Peak EPO ([1]; single dose 30 mg/kg, pre-dose 0): 1534.0 | Peak EPO ([1]; single dose 60 mg/kg, pre-dose 1.2): 2739.8

O=C(O)CNC(=O)c1nc(Cl)c2ccccc2c1O [Compound A, [(1-Chloro-4-hydroxy-isoquinoline-3-carbonyl)-amino]-acetic acid]
circulating levels of EPO ([2]; oral gavage 0, 20, 30, 60 mg/kg, 6 hours after administration (FIG. 1)): increased EPO levels in mice in a dose-dependent manner | increase of circulating levels of EPO ([2]; oral gavage 20 mg/kg, 6 hours after administration): approximately two-fold | Hemoglobin 6 mg/kg cmpd [3]: 12.86 g/dL | Hemoglobin 20 mg/kg cmpd [3]: 12.92 g/dL | Hemoglobin 60 mg/kg cmpd [3]: 13.47 g/dL | decrease from mean Hb baseline levels ([4]; CKD subjects after cessation of rhEPO therapy, placebo 1.5 g/dL decrease): 0.9 g/dL | Mean change from Baseline Hb Day 42 (or last value carried forward) ([4]; CKD subjects previously on rhEPO (discontinued 5-14 days before), mean baseline Hb 11.7 g/dL, placebo −1.5): -0.9 g/dL | hemoglobin levels versus placebo ([4]; rhEPO-naive CKD subjects, oral three-times per week for 4 weeks (FIG. 5)): hemoglobin levels were higher | Mean change from Baseline Hb Day 42 (or last value carried forward) ([4]; rhEPO-naive CKD subjects, mean baseline Hb 9.6 g/dL, placebo −0.35, p = 0.036): 1.9 g/dL | EPO Intravenous [5]: 1309 mIU/ml | Peak EPO ([1]; single dose 13 mg/kg, pre-dose 2.1): 3.6 | Peak EPO ([1]; single dose 30 mg/kg, pre-dose 0.6): 2.9 | Peak EPO ([1]; single dose 40 mg/kg, pre-dose 0.8): 32.3 | Peak EPO ([1]; single dose 50 mg/kg, pre-dose 0): 21.4 | Peak EPO ([1]; single dose 60 mg/kg, pre-dose 0): 1194.2 | serum EPO levels ([6]; healthy human subjects, 3, 6, 10, 15, 20 mg/kg oral (FIG. 3)): increased serum EPO levels in a dose-dependent manner | EPO AUC (0-24 hours) ([6]; human subjects, PHI dose 6 mg/kg): 203.5 | EPO AUC (0-24 hours) ([6]; human subjects, PHI dose 10 mg/kg): 331 | EPO AUC (0-24 hours) ([6]; human subjects, PHI dose 20 mg/kg): 365.5 | EPO AUC (0-24 hours) ([6]; human subjects, PHI dose 30 mg/kg): 508 | circulating EPO levels compared with rhEPO administration ([6]; human subjects, therapeutically effective doses of compound A versus rhEPO): substantially lower circulating EPO levels | circulating EPO levels ([7]; bilateral nephrectomized (BN) mice, single oral dose 30 mg/kg two hours after surgery, 6 hours after administration (FIG. 4B)): significant increase in EPO levels | circulating EPO levels ([7]; sham-operated mice, single oral dose 30 mg/kg, 6 hours after administration (FIG. 4A)): an increase in circulating levels of EPO | hematocrit ([8]; male and female rats, 20, 60, 150, 200, 300 mg/kg two times per week for 4 weeks, day 32 (FIG. 2)): increased hematocrit in rats in a dose-dependent manner | erythropoiesis, as determined by hematocrit ([8]; rats, 20 mg/kg two times per week for 4 weeks, day 32): clinically-significant increase in erythropoiesis

Cc1nc(C(=O)NCC(=O)O)c(O)c2cccc(Oc3ccccc3)c12 [Compound E, [(4-Hydroxy-1-methyl-8-phenoxy-isoquinoline-3-carbonyl)-amino]-acetic acid]
Hemoglobin 2 mg/kg cmpd [3]: 12.23 g/dL | Hemoglobin 6 mg/kg cmpd [3]: 13.29 g/dL | Hemoglobin 20 mg/kg cmpd [3]: 13.41 g/dL | Hemoglobin 60 mg/kg cmpd [3]: 15.9 g/dL | EPO Intravenous [5]: 2976 mIU/ml | EPO Oral Gavage [5]: 744 mIU/ml

rhEPO: recombinant human erythropoietin (rhEPO), an erythropoiesis stimulating protein; current therapy for anemia
Cmax EPO ([9]; rhEPO 10 U/kg i.v.): 181 mIU/ml | Cmax EPO ([9]; rhEPO 50 U/kg i.v.): 1,430 mIU/ml | Cmax EPO ([9]; rhEPO 150 U/kg i.v.): 4,438 mIU/ml | Cmax EPO ([9]; rhEPO 300 U/kg s.c.): 429 mIU/ml | Cmax EPO ([9]; rhEPO 450 U/kg s.c.): 1,263 mIU/ml | Cmax EPO ([9]; rhEPO 500 U/kg i.v.): 16,257 mIU/ml | Cmax EPO ([9]; rhEPO 600 U/kg s.c.): 1,263 mIU/ml

O=C(O)CNC(=O)c1ncc2c(Oc3ccccc3)cccc2c1O [Compound D, [(4-Hydroxy-8-phenoxy-isoquinoline-3-carbonyl)-amino]-acetic acid]
Hemoglobin 2 mg/kg cmpd [3]: 14.1 g/dL | Hemoglobin 6 mg/kg cmpd [3]: 13.98 g/dL | Hemoglobin 20 mg/kg cmpd [3]: 14.55q g/dL | EPO Intravenous [5]: 5473 mIU/ml | EPO Oral Gavage [5]: 1201 mIU/ml

COc1ccc(Oc2ccc3c(O)c(C(=O)NCC(=O)O)ncc3c2)cc1 [Compound C, {[4-Hydroxy-7-(4-methoxy-phenoxy)-isoquinoline-3-carbonyl]-amino}-acetic acid]
Hemoglobin 6 mg/kg cmpd [3]: 13.68 g/dL | Hemoglobin 20 mg/kg cmpd [3]: 14.29 g/dL | Hemoglobin 60 mg/kg cmpd [3]: 14.94 g/dL | EPO Intravenous [5]: 1663 mIU/ml

Cc1nc(C(=O)NCC(=O)O)c(O)c2ccc(Cl)cc12 [Compound F, [(7-Chloro-4-hydroxy-1-methyl-isoquinoline-3-carbonyl)-amino]-acetic acid]
Hemoglobin 6 mg/kg cmpd [3]: 13.66 g/dL | Hemoglobin 20 mg/kg cmpd [3]: 14.15 g/dL | Hemoglobin 60 mg/kg cmpd [3]: 17.74 g/dL | EPO Intravenous [5]: 3967 mIU/ml

Cc1nc(C(=O)NCC(=O)O)c(O)c2cccc(Oc3ccc(F)cc3)c12 [Compound G, {[8-(4-Fluoro-phenoxy)-4-hydroxy-1-methyl-isoquinoline-3-carbonyl]-amino}-acetic acid]
Hemoglobin 2 mg/kg cmpd [3]: 14.39 g/dL | Hemoglobin 6 mg/kg cmpd [3]: 13.13 g/dL | Hemoglobin 20 mg/kg cmpd [3]: 14.85 g/dL | Hemoglobin 60 mg/kg cmpd [3]: 17.7 g/dL | EPO Intravenous [5]: 10969 mIU/ml | EPO Oral Gavage [5]: 2546 mIU/ml

N#Cc1nc(C(=O)NCC(=O)O)c(O)c2sccc12 [Compound H, [(4-cyano-7-hydroxy-thieno[3,2-c]pyridine-6-carbonyl)-amino]-acetic acid]
Hemoglobin 2 mg/kg cmpd [3]: 12.67 g/dL | Hemoglobin 6 mg/kg cmpd [3]: 13.65 g/dL | Hemoglobin 20 mg/kg cmpd [3]: 13.53 g/dL | Hemoglobin 60 mg/kg cmpd [3]: 14.2 g/dL | EPO Intravenous [5]: 1242 mIU/ml | EPO Oral Gavage [5]: 608 mIU/ml
